Measured values: ChEMBL document CHEMBL1149616, “Antiproliferative, low-calcemic, fluorinated sulfone analogs of 1alpha,25-dihydroxyvitamin D3: chemical synthesis and biological evaluation” (Bioorg Med Chem, 2007)
The source made the active and inactive calls. The rule behind the calls is not given here.

Tests used:
Keratinocyte [1] = assay: Antiproliferative activity against mouse keratinocytes at 7 nM; format: functional, cell-based
Keratinocyte [2] = assay: Antiproliferative activity against mouse keratinocytes at 3 to 7 nM; format: functional, cell-based

Row | SMILES | Activity (Keratinocyte [1]) | Activity (Keratinocyte [2])
1 | C=C1/C(=C\C=C2/CCC[C@]3(C)C([C@H](C)CCCS(=O)(=O)C(F)(F)F)=CC[C@@H]23)C[C@@H](O)C[C@@H]1O | Active | –
2 | C=C1/C(=C\C=C2/CCC[C@]3(C)[C@@H]([C@@H](C)OCCCS(=O)(=O)C(F)(F)F)CC[C@@H]23)C[C@@H](O)C[C@@H]1O | – | Active
